According to patent publication US20020045764A1, “Tubulin binding compounds (COBRA)” (Parker Hughes Institute, priority 1998, published 2002):

Experiments:
Bovine brain tubulin = molecular target: T1, Bovine brain tubulin (Bos taurus, UniProt P81947+Q6B856); assay: Tubulin turbidity assay (GTP-induced tubulin polymerization); assay type: biochemical; details: for effect on GTP-dependent tubulin polymerization (turbidity): 1 mg/ml tubulin, 1 mM GTP, 37° C., OD 350 nm
T1 construct: purchased Sigma, St. Louis, Mo; host or cells: bovine brain (tissue-purified)
Protocol: Bovine brain tubulin (Sigma, St. Louis, Mo.) was used in standard turbidity assays to test the effects of compounds COBRA-1 and COBRA-2 as well as control compounds on GTP-induced tubulin polymerization. Compounds (in 1% DMSO) were added to tubulin (1 mg/ml, 0.1M MES, 1 mM EGTA, 0.5 mM MgCl2, 0.1 mM EDTA, 2.5M glycerol, 1 μg/ml leupeptin, 1 μg/ml aprotinin, pH 6.5) followed by stimulation of polymerization with 1 mM GTP at 2 minutes and 1 mM taxol at 30 minutes. Optical density was measured using a Becton Dickinson UV spectrophotometer (350 nm) using a thermostated cuvette holder to keep the reaction at 37° C. Readings obtained from the spectro-photometer were standardized by subtracting the background absorbance of the compound in water from the sample reading following drug addition.
To test the latitude of the structure at the opposite end of the molecule from the long chain (head region), three new COBRA compounds were synthesized according to the schemes shown below: COBRA-3, COBRA-4, and COBRA-5. Each of these compounds was then tested for tubulin depolymerization activity, using the tubidity assay described in the Examples above.
Each of these compounds was assayed for effects on GTP-dependent tubulin polymerization, using the methods described above.

human cell lines = assay: Anti-cancer activity against human cell lines; assay type: cell-based
human tumor cell lines = assay: MTT assays, panel of human tumor cell lines (overall statement); assay type: cell-based; details: 0.1 to 250 μM
Protocol: (§1) The antiproliferative activity of […] and the control mono-THF containing compounds 8.2, 8.3, and 8.4 was examined against a panel of 5 different human tumor cell lines using standard MTT (3-[4,5-dimethylthiazol-2-yl]-2,5-diphenyl tetrazolium bromide) assays^18 (Boehringer Mannheim Corp., Indianapolis, Ind.).
Briefly, exponentially growing brain tumor cells were seeded into a 96-well plate at a density of 2.5×10^4 cells/well and incubated for 36 hours at 37° C. prior to drug exposure. On the day of treatment, culture medium was carefully aspirated from the wells and replaced with fresh medium containing the test or control compounds at concentrations ranging from 0.1 to 250 μM. Triplicate wells were used for each treatment. The cells were incubated with the various compounds for 24-36 hours at 37° C. in a humidified 5% CO2 atmosphere. To each well, 10 μl of MTT (0.5 mg/ml final concentration) was added and the plates were incubated at 37° C. for 4 hours to allow MTT to form formazan crystals by reacting with metabolically active cells . […] The absorbence of each well was measured in a microplate reader (Labsystems) at 540 nm and a reference wavelength of 690 nm. […] The percent survival was calculated using the formula: % survival=Live cell number[test]×100/Live cell number[control]. […]

SQ20B = assay: MTT assay; assay type: cell-based, human; details: 24-36 hours
Protocol: as §1
(§2) Briefly, exponentially growing brain tumor cells were seeded into a 96-well plate at a density of 2.5×10^4 cells/well and incubated for 36 hours at 37° C. prior to drug exposure. On the day of treatment, culture medium was carefully aspirated from the wells and replaced with fresh medium containing the test or control compounds at concentrations ranging from 0.1 to 250 μM. Triplicate wells were used for each treatment. The cells were incubated with the various compounds for 24-36 hours at 37° C. in a humidified 5% CO2 atmosphere. To each well, 10 μl of MTT (0.5 mg/ml final concentration) was added and the plates were incubated at 37° C. for 4 hours to allow MTT to form formazan crystals by reacting with metabolically active cells . The formazan crystals were solubilized overnight at 37° C. in a solution containing 10% SDS in 0.01 M HCl. The absorbence of each well was measured in a microplate reader (Labsystems) at 540 nm and a reference wavelength of 690 nm. To translate the OD 540 values into the number of live cells in each well, the OD540 values were compared to those on standard OD540-versus-cell number curves generated for each cell line. The percent survival was calculated using the formula: % survival=Live cell number[test]×100/Live cell number[control].
(§3) IC50 values were calculated by non-linear regression analysis using an Graphpad Prism software version 2.0 (Graphpad Software, Inc., San Diego, Calif.).

PC-3 = assay: MTT assay; assay type: cell-based, human; details: 24-36 hours
Protocol: as §1, §2, §3
(§4) The following human cancer cell lines were used in the present study: BT-20, breast cancer; MDA-MB-231, breast cancer; PC3, prostate cancer; U87 and U373, glioblastoma; NALM-6, B-lineage acute lymphoblastic leukemia. These cell lines were obtained from American Type Culture Collection (Manassas, Va.) and maintained as continuous cell lines in Dulbecco's modified Eagles's medium supplemented with 10% fetal bovine serum and antibiotics.

U87 = assay: MTT assay; assay type: cell-based, human; details: 24-36 hours
Protocol: as §1, §2, §3, §4

NALM-6 = assay: MTT assay; assay type: cell-based, human; details: 24-36 hours
Protocol: as §1, §2, §3, §4

MDA-MB-231 = assay: MTT assay; assay type: cell-based, human; details: 24-36 hours
Protocol: as §1, §2, §3, §4

[1] = tested on: zebrafish (ZF) (Danio rerio) embryos; assay: Zebrafish embryo model, cell division and development; assay type: in vivo
Protocol: ZF eggs were removed from their chorions by mild digestion in 1% Trypsin-EDTA (Sigma) for 10 minutes at 28.5° C. (Standard temperature—ST), washed three times in “egg water”^15-16 and twice in “embryonic medium” (EM)^15-16. The dechorionated two-cell stage cleaving eggs/embryos were transferred to the 24-well plastic cell culture plates (Costar, City, State) filled with EM or Hank's Balanced Salt Saline (HBSS, Gibco, City, State). Dechorionated embryos (10-12 per well) were exposed to the drugs at a constant ST for 0.5-24 hours. The final volume of the media in each well was 500 μL. All reference as well as test compounds were used at concentrations ranging from 10 μM to 4 mM. The title compounds were dissolved in DMSO and then diluted serially with the incubation medium. The final concentration of DMSO in the wells was 1.2% (with the exception of the etoposide treatment where it was 3%). The sham-treated control embryos were incubated in EM or HBSS in the presence of 1.2% (or 3%) DMSO.
Observations of cell division and development of the ZF embryos were carried out using a SMZ-10A stereo microscope (Nicon, City, State), once every 30 minutes within the first 3 hours of incubation and at 6, 12 and 24 hours, as well. […] The stereo microscope was fitted with a specially designed transparent heating tray in order to keep embryos at ST during observations. Pictures of the embryos were taken with a H-III Photomicrographic System (Nicon) using Ektachrome 64X film (Kodak, Rochester, N.Y.).

U373 brain tumor cells [2] = assay: Two-photon confocal laser scanning microscopy, DiA-labeled cells; assay type: cell-based, human; details: for cell morphology: U373, 100 μM
Protocol: In some experiments, COBRA-1 treated brain tumor cells were labeled with the membrane dye DiA and imaged using multiphoton microscopy. The individual tumor cells were imaged 1 hour before adding 100 μM COBRA- 1. The total imaging period was 3 hours.
U373 brain tumor cells were labeled with the membrane dye DiA and imaged using two-photon microscopy.
Arrows denote membrane ruffles formed in the direction that the cell is crawling. Arrowheads denote the trailing edge or the edge where the cell is retracting. The cell was imaged 1 hour before adding 100 μM DDE261 (FIG. 9A). […] The cell continued to shrink throughout the 3 hour imaging period (FIGS. 9E and 9F). The white material in the color photographs is the dye, DiA. The Scale Bar denotes 20 microns.

[3] = tested on: BT-20 breast cancer cells; assay: Cytotoxicity by confocal microscopy (tubulin immunofluorescence); assay type: cell-based, human
Protocol: (§5) Cells were incubated at 37° C. for the indicated time periods with the title compounds. At the end of the incubation, cells were washed twice with PBS and fixed in 2% paraformaldehyde. The cells were permeabilized and non-specific binding sites were blocked with 2.5% BSA in PBS containing 0.1% Triton X-100 for 30 minutes. Tubulin expression was examined by immunofluorescence using a monoclonal antibody against α-tubulin (Sigma Chemical Co, St. Louis, Mo.) at a dilution of 1:1000 and an anti-mouse IgG conjugated to FITC. Cells were washed in PBS and counterstained with toto-3 (Molecular Probes Inc., Eugene, Oreg.) for 10 minutes at a dilution of 1:1000. Cells were washed again with PBS and the coverslips were mounted with Vectashield (Vector Labs, Burlingame, Calif.) and viewed with a confocal microscope (Bio-Rad MRC 1024) mounted in a Nikon Labhophot upright microscope. Digital images were saved on a Jaz disk and processed with Adobe Photoshop software (Adobe Systems, Mountain View, Calif.).
(§6) The ultrastructural changes in human breast and glioblastoma cancer cells treated with COBRA-1 or COBRA-2 were examined by confocal microscopy and by transmission electron microscopy, using methods previously reported^19.

U373 brain tumor cells [4] = assay: as above; assay type: cell-based, human
Protocol: as §5, §6

Nalm-6 leukemia cells = assay: Transmission electron microscopy; assay type: cell-based, human; design: dose or concentration left out as unconfirmed

T1 sequence (P81947 whole entry): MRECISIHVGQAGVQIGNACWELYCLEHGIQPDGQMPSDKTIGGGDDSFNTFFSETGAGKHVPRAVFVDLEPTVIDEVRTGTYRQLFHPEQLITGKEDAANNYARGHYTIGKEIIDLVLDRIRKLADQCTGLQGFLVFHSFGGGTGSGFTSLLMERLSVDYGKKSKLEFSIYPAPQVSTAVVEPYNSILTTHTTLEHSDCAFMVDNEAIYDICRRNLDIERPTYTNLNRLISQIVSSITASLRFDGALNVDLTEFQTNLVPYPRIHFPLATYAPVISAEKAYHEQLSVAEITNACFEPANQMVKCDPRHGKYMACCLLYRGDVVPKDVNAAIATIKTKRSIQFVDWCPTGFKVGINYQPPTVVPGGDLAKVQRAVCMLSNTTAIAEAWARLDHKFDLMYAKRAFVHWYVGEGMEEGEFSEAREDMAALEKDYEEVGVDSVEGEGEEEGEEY
T1 sequence (Q6B856 whole entry): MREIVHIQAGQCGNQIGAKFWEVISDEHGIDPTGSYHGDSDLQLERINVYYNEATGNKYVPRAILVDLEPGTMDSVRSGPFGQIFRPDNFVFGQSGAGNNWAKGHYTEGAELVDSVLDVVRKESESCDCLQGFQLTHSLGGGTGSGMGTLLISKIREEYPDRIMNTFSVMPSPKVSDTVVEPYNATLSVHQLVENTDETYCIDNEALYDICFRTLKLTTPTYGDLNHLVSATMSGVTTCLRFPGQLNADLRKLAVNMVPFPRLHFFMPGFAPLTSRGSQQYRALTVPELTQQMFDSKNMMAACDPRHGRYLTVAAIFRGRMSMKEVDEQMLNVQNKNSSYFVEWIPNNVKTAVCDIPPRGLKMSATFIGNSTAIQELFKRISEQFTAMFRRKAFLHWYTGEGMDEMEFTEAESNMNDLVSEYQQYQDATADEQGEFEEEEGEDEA

CCCCCCCCCCCCSCC(NC(C)=O)C(=O)CCl (stereo not drawn) [COBRA-5, N-Ac-S-dodecyl-Cys Chloromethyl Ketone]
effect on GTP-dependent tubulin polymerization (turbidity) (Bovine brain tubulin): caused partial depolymerization of tubulin and completely inhibited its polymerization in the presence of GTP
IC90 (Bovine brain tubulin; stated in the tubulin polymerization paragraph, assay not named): 10 µM
anti-cancer activity against human cell lines (human cell lines): very potent anti-cancer activity

CCCCCCCCCCCC[C@@H](O)[C@H]1CC[C@H](CO)O1 [COBRA-1]
inhibition of all cell lines (human tumor cell lines): inhibited by COBRA-1 in a dose-dependent fashion
IC50 (SQ20B): 140 µM
IC50 (PC-3): 171 µM
IC50 (U87): 107 µM
IC50 (NALM-6): 49 µM
IC50 (MDA-MB-231): 77 µM
effect on ZF embryo ([1]; 200 μM, 30 minutes): start of cell fusion
effect on ZF embryo ([1]; 200 μM, 60 minutes): cell division blockade, total fusion and developmental arrest
effect on ZF embryo ([1]; 400 μM, 30 minutes): deterioration of cell division and start of cell fusion
effect on ZF embryo ([1]; 400 μM, 60 minutes): cell division blockade, total fusion and developmental arrest
effect on two-cell stage ZF embryos ([1]; 200 and 400 μM): developed normally for 30 minutes, up to the 8-cell stage, and then showed an immediate arrest of proliferation followed by cell fusion
effect on GTP-dependent tubulin polymerization (turbidity) (Bovine brain tubulin): caused partial depolymerization of tubulin and inhibited its polymerization in the presence of GTP
cell morphology (U373 brain tumor cells [2]; after 1 hour): only trailing edges are present
cell morphology (U373 brain tumor cells [2]; within 40 minutes of drug addition): only one membrane ruffle is still evident
onset of induced apoptosis after exposure (U373 brain tumor cells [2]; tumor cells (U373)): approximately 1 hour
time to total destruction (U373 brain tumor cells [2]; tumor cells (U373)): ≤ 24 h
cell morphology / microtubules ([3]; BT-20, 100 μM, 24 hours): the cells shrink and the microtubules become less organized
cell morphology / microtubules ([3]; BT-20, 200 μM): cell death with nuclear fragmentation and complete loss of microtubule formation
cell morphology / microtubules (U373 brain tumor cells [4]; U373, 100 μM): induces abnormal tubulin structures
cell morphology / microtubules (U373 brain tumor cells [4]; U373, 200 μM): cell death with nuclear fragmentation and complete loss of microtubule formation
ultrastructural changes (Nalm-6 leukemia cells): nuclear fragmentation, chromatin condensation, and formation of multiple autophagosomes, consistent with apoptosis
